System: patients with menopausal symptoms
Test: Case study: menopausal symptoms, transdermal estriol in oil (Example 15)
Format: in vivo, human
Conditions: after 15 and 30 days; one patient each: estriol 1 mg oral tablet daily; example 7 oil 0.5 ml twice daily on skin (0.25 mg estriol daily); oral multivitamin and minerals tablet
Protocol: Three patients with menopausal symptoms were taken for study. The patients were divided into three groups. First patient was advised to take orally estriol one mg as tablet daily. Second patient was advised to apply over skin of thighs and abdomen 0.5 ml twice daily medicated optimized nutrient oil prepared by a process as given in example-7 which contains 0.25 mg estriol/ml, so that 0.25 mg estriol is absorbed daily by the body through skin. Third patient was given oral multivitamin and minerals as tablet.

## C[C@]12CC[C@@H]3c4ccc(O)cc4CC[C@H]3[C@@H]1C[C@@H](O)[C@@H]2O [estriol]
  hot flushes, mood changes and sleep pattern: improvement in all the three symptoms
